Consider 81 molecules from the METLIN SMRT retention time set (Domingo-Almenara et al. 2019).

The series in a line: gradient 5% acetonitrile 3 min, to 50% in 2 min, to 85% in 15 min, held 3 min, 100 µL/min. The conditions noted are these: column: Zorbax Extend-C18 2.1 x 50 mm; eluents: water / acetonitrile, 0.1% formic acid. Put shortly: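 The system's dead and dwell volumes were 40 μL and 900 μL, with a Zorbax Extend-C18 column (2.1 × 50 mm, 1.8 μm) run at 100 μL/min in water and acetonitrile containing 0.1% formic acid each. Pure standards were analyzed in mixtures of ~100 molecules by HPLC–quadrupole time-of-flight mass spectrometry in positive and negative ionization mode. Retention time was assigned from computationally picked, manually inspected adduct peaks.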
In the case of `CC(=O)N1CCc2cc(C)c(S(=O)(=O)N3CCN(C)CC3)cc21`, the RP-LC retention time is 585 s.
As for `O=C(Cc1cn2cc(Br)ccc2n1)N1CCSCC1`, the figure is 570 s.
The figure for `O=C(c1ccc(Cn2c(=O)c3cccn3c3cccnc32)cc1)N1CCN(c2ccccn2)CC1` is 645 s.
The figure for `Cc1cc(C)c(C(=O)N2CCCC(C(=O)N3CCN(c4cccc(C)c4C)CC3)C2)[nH]1` (stereo unspecified) is 996 s; for `Cc1nc2nc(-c3ccccc3)nn2c(Sc2ccc(N)cc2)c1C` it is 863 s.
For `COc1ccc(-c2nc3ncccn3c2NCc2ccc(Cl)cc2)cc1OC`, the RP-LC retention time was 717 s.
The figure for `COc1cccc(CNC(=O)C2(C)CCCN(C(=O)Nc3cc(Cl)ccc3OC)C2)c1` (stereo unspecified) is 990 s; for `Cc1cccc(-c2noc(-c3ccc(N4CCN(C)CC4)nc3)n2)c1` it is 708 s.
The figure for `Cc1ccc(C)c2sc(N(C)CC(=O)Nc3ccc(-n4cnnn4)cc3)nc12` is 896 s; for `COc1cccc(-c2nc(-c3ccc4nnn(C(C)C)c4c3)no2)c1` it is 1150 s.
The figure for `Cc1nnc(-c2ccc3ccn(CC(=O)Nc4ccc(F)cc4F)c3c2)o1` is 801 s; for `COc1ccc(C(=O)N2CCC3(CC2)N=C(c2cccc(Br)c2)NO3)cc1F` it is 901 s.
The molecule `CC(C)[C@@H](C(=O)NCCc1c[nH]c2ccc(F)cc12)n1nnc2ccccc2c1=O` had an RP-LC retention time of 874 s.
As for `Clc1cccc(-c2ccc(CNCc3ccc4c(c3)OCO4)o2)c1`, the figure is 741 s.
As for `Cc1ccc(NS(=O)(=O)c2cc3c4c(c2)CCC(=O)N4CCC3)c(C)c1`, the figure is 840 s; as for `CCCC(=O)N1C[C@@H]2CCCN3CCC[C@@H]([C@H]23)[C@H]1CCCC(=O)NCC1CC1`, 587 s; as for `COc1cc(OC)c(NC(=O)N2CCc3nc(-c4ccc(F)cc4)ncc3C2)cc1Cl`, 1020 s.
`O=C(C1CCN(S(=O)(=O)c2ccc(-c3noc(C4CC4)n3)cc2)CC1)N1CCc2ccccc21` returned an RP-LC retention time of 800 s.
As for `CCn1nccc1C(=O)N1CCCN(c2nnc3ccccn23)CC1`, the figure is 879 s; as for `Cc1ccc(NC(=O)N2CCC(N3CCN(Cc4ccccc4)C3=O)CC2)cc1`, 822 s.
In the case of `COCC(=O)NC1CCC12CCN(S(=O)(=O)c1c(C)noc1C)CC2` (stereo unspecified), the RP-LC retention time was determined as 740 s.
As for `CCCNC(=O)N1CCCN(C2=NS(=O)(=O)C(c3ccc(CC)cc3)=C2C)CC1`, the figure is 809 s; as for `CCCN1C(=O)COc2ccc(-c3csc(NC(C)=O)n3)cc21`, 806 s.
The figure for `CCCNS(=O)(=O)c1ccc(Cl)c(-c2nnc(-c3ccccc3)o2)c1` is 1010 s; for `CCSCCOC(=O)C1=C(C)NC2=C(C(=O)CCC2)C1c1cccc(OC)c1OC` (stereo unspecified) it is 861 s.
Regarding `COc1cccc(NC(=O)Cn2nc3c(Oc4ccccc4Cl)nccn3c2=O)c1`, the RP-LC retention time was 865 s.
The figure for `CCOC(=O)C1=C(CN2CCOCC2)NC(=O)NC1c1ccc(OC(C)C)cc1` (stereo unspecified) is 628 s; for `O=C(NCCOc1ccc(F)cc1)C1CN(C(=O)c2cccs2)C1` it is 691 s; for `O=C(Nc1cccc(F)c1)C1CCc2nc(N3CCCCC3)ncc2C1` (stereo unspecified) it is 800 s.
`COc1ccc(NC(=O)Cn2c(=O)c3cc(C)nn3c3ncccc32)c(OC)c1` gave an RP-LC retention time of 694 s.
`CN(CCc1noc(-c2ccc(Cl)cc2)n1)C(=O)c1ccc(C#N)cc1` returned an RP-LC retention time of 908 s.
As for `CNC(=O)c1nn(-c2ccc(OC)c(OC)c2)c(OC)cc1=O`, the figure is 590 s; as for `O=C(CSCc1ccccc1)NCC1(c2cccs2)CCOCC1`, 819 s; as for `O=c1ccc(N2CCCN(S(=O)(=O)c3ccccc3F)CC2)nn1-c1ccccc1`, 820 s.
The figure for `Cc1ccc(NC(=O)N2CCC(n3c(-c4ccoc4)nc4cccnc43)C2)cc1F` (stereo unspecified) is 774 s; for `CCOc1cc(C(=O)N2CCN(c3cc(-c4cccs4)[nH]n3)CC2)cc(OCC)c1OCC` it is 907 s; for `Cc1ccc(-c2noc(-c3cccc(S(=O)(=O)Nc4ccc5c(c4)OCCO5)c3)n2)cc1` it is 1140 s.
Consider `CC(C)S(=O)(=O)c1ccc(C(=O)N2CC(=O)Nc3ccccc32)cc1`, for which the RP-LC retention time was 653 s.
The figure for `O=C(c1ccc2c(c1)OCO2)N1CCC(c2ccncc2)CC1` is 584 s; for `COc1cccc(CN2CC(=O)N(Cc3ccc(F)cc3)c3ccccc3S2(=O)=O)c1` it is 1100 s.
As for `c1ccc(COCCc2noc(C3CCCCN3)n2)cc1` (stereo unspecified), the figure is 622 s; as for `CCCn1cc(CCNC(=O)c2cc(Cl)ccc2F)c2cccnc21`, 852 s.
On to `O=C(NC1CCCC1)N1CCN(c2ncccc2-c2nnc(C3CC3)o2)CC1`, for which the RP-LC retention time is 719 s.
The figure for `COCCCNC(=O)CCc1c(C)n(C)c2nc(-c3ccccc3)nn2c1=O` is 653 s; for `CC(C)(C)c1cc(C(N)=O)n[nH]1` it is 602 s; for `CCN1CCN(C(=O)Cn2cccc2-c2nnc(-c3ccccc3)o2)CC1` it is 636 s.
The figure for `CN1c2cc(F)ccc2C(=O)NC12CCN(C(=O)Cc1cccc(F)c1)CC2` is 752 s; for `CC(=O)N1CCC(CC(=O)N2CCCCCCN(C)C(=O)[C@@H]3CCC[C@@H]32)CC1` it is 663 s; for `CN1C(=O)C2(CCN(C(=O)c3ccccc3Cl)C2)c2ccccc21` (stereo unspecified) it is 787 s.
The figure for `COc1cccc(N2CCN(c3ccnc(SCC(=O)Nc4ccc(Cl)cc4F)n3)CC2)c1` is 941 s; for `COc1cc(C(=O)NCC(c2cccs2)N2CCOCC2)c([N+](=O)[O-])cc1OC` (stereo unspecified) it is 565 s.
For the molecule `CCC(C)NC(=O)N1CCCN(C2=NS(=O)(=O)C(c3ccc(C)cc3)=C2C)CC1` (stereo unspecified), the RP-LC retention time came to 816 s.
The figure for `O=C(Nc1ccc2nnc(-c3ccc(C(=O)N4CCSCC4)cc3)n2c1)C1CCC1` is 885 s; for `COC(=O)c1ccc(C2CC(=O)Nc3c(-c4ccc(OC)cc4)csc32)cc1` (stereo unspecified) it is 1000 s; for `Cc1cccc(Cn2c(C)c(CNCc3ccco3)c(C(=O)O)c2C)c1` it is 697 s.
As for `CC(=O)N1CCc2cc(-c3ccc(C(=O)N4CCC(C)CC4)cc3)ccc21`, the figure is 889 s; as for `CCn1nnnc1NCc1ccc2c(c1)n(C)c(=O)n2C`, 617 s.
Molecule `CNC(=O)c1cc(C)nc2ccc(Cl)cc12` yielded an RP-LC retention time of 607 s.
The figure for `O=C(CCCN1CCC(O)(c2cccc(C(F)(F)F)c2)CC1)c1ccc(F)cc1` is 805 s; for `O=C(Cn1c(=O)c2nncn2c2ncccc21)NCc1cc(F)ccc1F` it is 654 s.
As for `CC(C)CC(=O)Nc1ccc(N2CCN(CC(=O)N3CCCC3)CC2)cc1C(=O)O`, the RP-LC retention time was determined as 614 s.
As for `Cc1cccc(NC(=O)CC2COc3ccccc3NC2=O)c1C` (stereo unspecified), the RP-LC retention time worked out at 736 s.
`CCN1CCCn2cc(S(=O)(=O)NCc3cccc(F)c3)cc2C1=O` returned an RP-LC retention time of 754 s.
The figure for `Cc1ccc(NC(=O)CN2C(=O)CN(C)C(=O)c3ccccc32)c(Br)c1` is 734 s; for `Cc1ccc(-c2nnc(Cc3nc(-c4ccccn4)no3)o2)cc1F` it is 822 s; for `CCCn1c(CCNC(=O)c2ccc(C#N)cc2)nc2cccnc21` it is 662 s.
For `Cc1cccc(CC(=O)NCCSc2ncc(-c3ccccc3)[nH]2)c1`, the RP-LC retention time amounted to 607 s.
As for `CN(C)[C@@H]1CN(C(=O)c2ccc(Cn3cncn3)o2)CC[C@@H]1CO`, the figure is 518 s; as for `COc1ccccc1NS(=O)(=O)c1cc2c(s1)CCN(C(=O)C1CCC1)C2`, 890 s.
As for `O=C(NCc1ccccn1)C(=O)Nc1ccc2c(c1)OCO2`, the figure is 579 s.
As for `CN1C(=O)C2(CCN(C(=O)c3ccc(Cl)cc3)C2)c2ccccc21` (stereo unspecified), the figure is 851 s; as for `CCn1ccc(C(=O)N2CC(n3ccnc3C(C)C)C2)n1`, 566 s.
In the case of `Cc1ccc(-n2c(N3CCCC(C(=O)Nc4ccc(C)c(Cl)c4)C3)nc3ccsc3c2=O)cc1` (stereo unspecified), the RP-LC retention time came to 1160 s.
The figure for `COCC(=O)N1CCC2(CC1)NC(=O)c1ccccc1O2` is 610 s; for `Cc1ccc(F)cc1NS(=O)(=O)c1cc2n(c1)CCCN(C)C2=O` it is 716 s.
The figure for `O=C(c1ccncc1)N1CCN(c2cc(-c3cccs3)[nH]n2)CC1` is 619 s; for `Cn1nc(CNC(=O)COc2ccc(Cl)cc2)c2ccccc21` it is 853 s; for `CCOC(=O)c1ccccc1NC(=O)N(Cc1cc(=O)[nH]c2ccccc12)C(C)C` it is 891 s.
As for `COCCc1noc(-c2ccc(=O)n(CC(=O)NC3CCCCC3)c2)n1`, the figure is 684 s.
The molecule `Cc1ccc(-c2nnc(Cc3nc(-c4ccc(OCC(C)C)cc4)no3)o2)cc1F` came in with an RP-LC retention time of 919 s.
As for `CCc1noc(-c2ccnc(-n3cnc(C(=O)NC4CCCCCC4)c3)c2)n1`, the figure is 640 s.
